Results from US20060292653A1, “Metal mediated fluorescence superquenching assays for detection of phosphorylation and dephosphorylation of quencher-labeled substrates” (priority 2005, published 2006).

How the values were obtained:
Format in all cases: biochemical
[1] = target: T1, PI3 delta (Homo sapiens, UniProt O00329); assay: Enhancer activity, real-time (kinetic) versus endpoint monitoring
T1 construct: purchased Upstate (Lake Placid, N.Y.)
From the text: (§1) Kinetic or real-time assays allow one to observe the mode of action of inhibitors and activator of enzyme activity in “real time”. Several inhibitor profiles are contemplated herein.
(§2) Another type of inhibitor profile utilizes the mode of action of enhancers. Enhancers may cause a very steep increase in activity (compared to control) within several minutes of reaction and then flatten out over time to an activity equal to that of the control. Thus, endpoint measurement could miss these enhancers. For example, Trypohostin 35, Trypohostin 25 and GW 5074 are enhancers of PI3 alpha, beta, and delta, respectively, in real time, and result in a >50% increase of activity within 5 minutes of reaction compared to ˜20% when monitored in endpoint mode. Enhancers may not be of therapeutic value for PI3Ks (since their pathological effect is exerted mainly by over-activity to begin with) but knowledge of chemical structure of enhancers may facilitate identification and/or confirmation of environmental pathogens, which may cause disease.

[2] = target: T2, PI3K δ (Homo sapiens, UniProt O00329); details: ratiometric 490 nm/574 nm
T2 construct: purchased Upstate (Lake Placid, N.Y.)
Protocol: Percent activities are plotted for each compound screened using the ratio of wavelengths at 490 nm/574 nm. Inhibition values were calculated relative to positive and negative controls wells and corrected for background (filled squares, filled diamonds). […] Final concentrations of enzyme, substrate and ATP were 2.6 nM, 250 nM and 50 μM. The delta RFU between reactions in the presence and absence of enzyme were obtained and used to calculate % inhibition.

[3] = target: T3, PI3 beta (Homo sapiens, UniProt P42338); assay: Enhancer activity, real-time (kinetic) versus endpoint monitoring
T3 construct: purchased Upstate (Lake Placid, N.Y.)
From the text: as §1, §2

[4] = target: T4, PI3 alpha (Homo sapiens, UniProt P42336); assay: as above
T4 construct: purchased Upstate (Lake Placid, N.Y.)
From the text: as §1, §2

[5] = real time, within 5 minutes of reaction

T1 sequence (O00329 whole entry, species assumed): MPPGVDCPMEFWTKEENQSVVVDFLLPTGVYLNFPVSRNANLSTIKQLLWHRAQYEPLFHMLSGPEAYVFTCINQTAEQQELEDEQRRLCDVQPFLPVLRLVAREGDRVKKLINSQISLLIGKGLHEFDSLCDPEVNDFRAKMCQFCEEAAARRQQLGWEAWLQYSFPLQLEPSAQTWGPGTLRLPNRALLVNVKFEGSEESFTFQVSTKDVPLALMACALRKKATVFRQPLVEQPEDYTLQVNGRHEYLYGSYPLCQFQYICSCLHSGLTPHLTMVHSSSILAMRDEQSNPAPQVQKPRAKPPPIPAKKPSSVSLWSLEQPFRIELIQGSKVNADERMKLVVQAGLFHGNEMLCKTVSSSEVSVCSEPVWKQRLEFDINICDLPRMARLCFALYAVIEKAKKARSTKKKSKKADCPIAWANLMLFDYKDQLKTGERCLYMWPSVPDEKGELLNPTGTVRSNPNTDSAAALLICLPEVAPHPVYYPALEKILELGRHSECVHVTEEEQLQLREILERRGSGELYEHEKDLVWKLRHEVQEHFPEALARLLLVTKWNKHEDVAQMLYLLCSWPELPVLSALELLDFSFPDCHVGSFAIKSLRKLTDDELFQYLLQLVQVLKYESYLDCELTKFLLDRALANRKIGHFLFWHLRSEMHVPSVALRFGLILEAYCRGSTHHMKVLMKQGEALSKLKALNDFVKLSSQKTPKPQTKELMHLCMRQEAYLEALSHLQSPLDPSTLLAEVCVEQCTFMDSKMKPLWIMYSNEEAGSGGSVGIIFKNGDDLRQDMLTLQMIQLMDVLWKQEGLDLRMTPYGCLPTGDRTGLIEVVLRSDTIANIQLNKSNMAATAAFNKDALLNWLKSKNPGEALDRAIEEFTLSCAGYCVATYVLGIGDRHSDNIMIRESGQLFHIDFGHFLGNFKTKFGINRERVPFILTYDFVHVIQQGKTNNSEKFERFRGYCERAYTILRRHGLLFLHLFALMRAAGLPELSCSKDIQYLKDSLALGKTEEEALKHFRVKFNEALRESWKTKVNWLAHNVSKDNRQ
T1 sequence (P27986 whole entry partner, species assumed): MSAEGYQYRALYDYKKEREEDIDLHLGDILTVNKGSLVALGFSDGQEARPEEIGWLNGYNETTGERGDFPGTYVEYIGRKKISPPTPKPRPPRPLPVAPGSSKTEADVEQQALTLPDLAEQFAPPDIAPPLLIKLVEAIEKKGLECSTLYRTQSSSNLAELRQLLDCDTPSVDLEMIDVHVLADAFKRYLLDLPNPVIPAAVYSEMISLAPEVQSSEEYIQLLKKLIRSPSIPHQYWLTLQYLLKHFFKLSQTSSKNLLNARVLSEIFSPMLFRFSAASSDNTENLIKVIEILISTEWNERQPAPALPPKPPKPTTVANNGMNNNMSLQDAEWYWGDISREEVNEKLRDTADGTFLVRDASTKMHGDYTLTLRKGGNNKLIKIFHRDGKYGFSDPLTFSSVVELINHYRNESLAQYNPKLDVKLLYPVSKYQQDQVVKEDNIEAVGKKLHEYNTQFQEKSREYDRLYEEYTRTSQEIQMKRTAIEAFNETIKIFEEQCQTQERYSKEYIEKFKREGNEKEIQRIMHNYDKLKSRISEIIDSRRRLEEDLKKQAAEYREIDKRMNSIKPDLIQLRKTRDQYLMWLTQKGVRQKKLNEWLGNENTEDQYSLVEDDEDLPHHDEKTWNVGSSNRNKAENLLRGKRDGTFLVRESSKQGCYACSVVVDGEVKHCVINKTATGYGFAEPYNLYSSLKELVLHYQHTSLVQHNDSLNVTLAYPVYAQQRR
T3 sequence (P42338 whole entry): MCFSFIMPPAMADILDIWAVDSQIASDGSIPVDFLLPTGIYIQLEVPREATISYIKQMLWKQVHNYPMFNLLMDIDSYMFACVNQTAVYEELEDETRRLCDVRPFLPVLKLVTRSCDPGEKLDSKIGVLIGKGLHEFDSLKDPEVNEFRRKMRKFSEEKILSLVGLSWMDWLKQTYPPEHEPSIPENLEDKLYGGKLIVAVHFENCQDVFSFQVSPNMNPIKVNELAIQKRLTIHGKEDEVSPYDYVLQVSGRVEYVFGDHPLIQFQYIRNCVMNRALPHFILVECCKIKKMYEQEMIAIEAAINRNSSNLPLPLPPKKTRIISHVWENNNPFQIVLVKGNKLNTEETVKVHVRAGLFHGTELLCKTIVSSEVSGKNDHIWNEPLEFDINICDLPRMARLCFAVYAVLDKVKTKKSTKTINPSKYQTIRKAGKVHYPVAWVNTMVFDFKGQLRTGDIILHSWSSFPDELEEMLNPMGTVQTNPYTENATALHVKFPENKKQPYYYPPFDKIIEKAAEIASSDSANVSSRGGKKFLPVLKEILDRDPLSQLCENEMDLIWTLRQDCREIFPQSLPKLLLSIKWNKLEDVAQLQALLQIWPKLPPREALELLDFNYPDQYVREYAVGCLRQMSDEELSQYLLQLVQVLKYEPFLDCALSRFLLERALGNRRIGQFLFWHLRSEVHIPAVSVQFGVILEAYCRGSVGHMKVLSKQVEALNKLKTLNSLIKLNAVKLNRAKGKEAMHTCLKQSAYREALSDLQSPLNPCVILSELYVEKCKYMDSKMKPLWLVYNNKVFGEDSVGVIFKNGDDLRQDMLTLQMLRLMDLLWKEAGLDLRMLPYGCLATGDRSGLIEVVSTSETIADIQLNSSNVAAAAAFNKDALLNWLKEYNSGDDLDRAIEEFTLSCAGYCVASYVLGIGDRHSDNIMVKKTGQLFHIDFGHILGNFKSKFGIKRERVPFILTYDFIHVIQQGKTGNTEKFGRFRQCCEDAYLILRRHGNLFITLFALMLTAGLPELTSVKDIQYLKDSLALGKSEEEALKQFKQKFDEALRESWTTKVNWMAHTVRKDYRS
T3 sequence (P27986 whole entry partner): as the sequence (P27986 whole entry partner, species assumed) above
T4 sequence (P42336 whole entry, species assumed): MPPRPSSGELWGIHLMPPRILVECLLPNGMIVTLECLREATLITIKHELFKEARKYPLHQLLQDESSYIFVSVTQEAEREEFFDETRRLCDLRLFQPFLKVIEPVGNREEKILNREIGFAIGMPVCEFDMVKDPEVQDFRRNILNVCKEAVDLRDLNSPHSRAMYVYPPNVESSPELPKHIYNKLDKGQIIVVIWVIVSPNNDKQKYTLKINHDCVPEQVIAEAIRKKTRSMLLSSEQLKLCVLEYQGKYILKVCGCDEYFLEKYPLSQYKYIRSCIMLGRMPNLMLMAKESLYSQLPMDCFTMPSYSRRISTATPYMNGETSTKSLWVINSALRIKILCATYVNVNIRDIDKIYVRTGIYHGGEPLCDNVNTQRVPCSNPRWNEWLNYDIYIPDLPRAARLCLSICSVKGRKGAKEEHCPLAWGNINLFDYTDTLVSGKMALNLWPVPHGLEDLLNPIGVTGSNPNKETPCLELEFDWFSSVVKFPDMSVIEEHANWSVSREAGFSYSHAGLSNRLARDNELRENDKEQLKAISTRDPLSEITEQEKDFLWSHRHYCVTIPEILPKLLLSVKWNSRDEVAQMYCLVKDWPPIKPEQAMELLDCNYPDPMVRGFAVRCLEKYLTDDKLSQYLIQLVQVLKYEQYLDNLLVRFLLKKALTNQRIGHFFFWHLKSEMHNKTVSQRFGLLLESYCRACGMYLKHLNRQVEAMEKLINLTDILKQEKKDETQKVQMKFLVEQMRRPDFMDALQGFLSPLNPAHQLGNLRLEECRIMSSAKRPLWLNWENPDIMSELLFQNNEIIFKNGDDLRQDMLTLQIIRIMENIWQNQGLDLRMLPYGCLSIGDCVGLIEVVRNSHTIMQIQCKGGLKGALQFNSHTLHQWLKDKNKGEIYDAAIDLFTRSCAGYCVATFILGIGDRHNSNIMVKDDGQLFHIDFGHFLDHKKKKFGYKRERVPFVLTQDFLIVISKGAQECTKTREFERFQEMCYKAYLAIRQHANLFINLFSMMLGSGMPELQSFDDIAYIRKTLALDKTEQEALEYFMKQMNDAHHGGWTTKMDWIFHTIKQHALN
T4 sequence (P27986 whole entry partner, species assumed): as the sequence (P27986 whole entry partner, species assumed) above
T2 sequence (O00329 whole entry, species assumed): as the sequence (O00329 whole entry, species assumed) above
T2 sequence (P27986 whole entry partner, species assumed): as the sequence (P27986 whole entry partner, species assumed) above

O=C1Nc2ccc(I)cc2/C1=C/c1cc(Br)c(O)c(Br)c1 [GW 5074]
increase of activity compared to control ([1]; endpoint mode): ~20% | increase of activity compared to control [1, 5]: > 50%

O.O.O=c1c(O)c(-c2ccc(O)c(O)c2)oc2cc(O)cc(O)c12 [Quercetin Dihydrate]
identification as inhibitor in the 84 compound screen [2]: correctly identified

N#CC(C#N)=Cc1cc(O)c(O)c(O)c1 [Trypohostin 25]
increase of activity compared to control ([3]; endpoint mode): ~20% | increase of activity compared to control [3, 5]: > 50%

Trypohostin 35
increase of activity compared to control ([4]; endpoint mode): ~20% | increase of activity compared to control [4, 5]: > 50%
